The values below are quoted from earlier work in patent US8153661B2, “Controlled delivery system” (Durect Corporation, priority 2004, dated 2012).

The structures appear in SMILES notation.

Regarding `CCCCN1CCCCC1C(=O)Nc1c(C)cccc1C` (stereo not shown) [bupivacaine], the “published estimated toxic plasma concentration ranges” value was 1 to 4 µg/mL.
